24 molecules from ChEMBL document CHEMBL5226304, “Fused-azepinones: Emerging scaffolds of medicinal importance” (Eur J Med Chem, 2021) can be followed below.

The structures appear in SMILES notation.

One test is filed under the species Homo sapiens. The test can be described thus: Selectivity ratio of IC50 for Chk1 (unknown origin) to IC50 for (unknown origin).
The next test concerns MOLM-13. The test can be described thus: Antiproliferative activity against human MOLM-13 cells assessed as inhibition of proliferation measured after 96 hrs by alamerBlue assay. Type of test: functional, cell-based.
For a further test, the system named is LAPC4. Description: Antiproliferative activity against human LAPC4 cells assessed as inhibition of proliferation measured after 96 hrs by alamerBlue assay. Type of test: functional, cell-based.
Test [1] has as its target RAF proto-oncogene serine/threonine-protein kinase (Homo sapiens, UniProt P04049). Description: Inhibition of c-Raf (unknown origin).
Test [2] is described as follows: Inhibition of cGMP-dependent protein kinase (unknown origin). Also noted: species or system Homo sapiens.
Test [3] has as its target Cyclin-dependent kinase 4/cyclin D1 (Homo sapiens, UniProt P11802). Description: Inhibition of CDK4/Cyclin D1 (unknown origin). Format: protein-complex assay.
Test [4] in a line: Inhibition of MAPKK (unknown origin). Also noted: species or system Homo sapiens.
A short description of test [5]: Inhibition of cAMP-dependent protein kinase (unknown origin). Details: species or system Homo sapiens.
The target in test [6] is Glycogen synthase kinase-3 beta (Rattus norvegicus, UniProt P18266). Description: Inhibition of recombinant recombinant rat GSK3beta using GS-1 peptide as substrate in presence of [gamma-32P]ATP measured after 30 mins incubation by scintillation counting analysis.
Test [7] has as its target Cyclin-dependent kinase 5/CDK5 activator 1 (Homo sapiens, UniProt Q00535). The test can be described thus: Inhibition of CDK5/p25 (unknown origin). Format: protein-complex assay.
In test [8] the target is Cyclin-dependent kinase 1/cyclin B (Homo sapiens, UniProt P06493). Description: Inhibition of CDK1/Cyclin B (unknown origin) in presence of gamma32P-ATP by scintillation counter analysis. Format: protein-complex assay.
In test [9] the target is Cyclin-dependent kinase 2/cyclin A (Homo sapiens, UniProt P24941). The test can be described thus: Inhibition of CDK2/Cyclin A (unknown origin). Format: protein-complex assay.
The test system of test [10] is THP-1. Description: Antiinflammatory activity in human THP-1 cells assessed as inhibition of LPS-stimulated IL2 production. Format: functional, cell-based.
Test [11] deals with THP-1. The test can be described thus: Antiinflammatory activity in human THP-1 cells assessed as inhibition of LPS-stimulated TNFalpha production. Format: functional, cell-based.
Test [12] deals with Human immunodeficiency virus 1. The test can be described thus: Antiviral activity against HIV1 assessed as inhibition of LC5-RIC cells infection at 50 uM relative to control. Format: functional.
Test [13] addresses Mitogen-activated protein kinase kinase kinase 7 (Homo sapiens) (UniProt O43318). Description: Inhibition of MAP3K7 kinase (unknown origin) at 10 uM relative to control.
The subject of another test is KB 3-1. Description: Cytotoxicity against human KB-3-1 cells by MTT assay. Type of test: functional, cell-based. Background: Tetrazolium dyes change colour on reduction, which living cells bring about.
Another test has as its system MDA-MB-231. The test can be described thus: Cytotoxicity against human MDA-MB-231 cells by MTT assay. Type of test: functional, cell-based.
Another test deals with MCF7. Description: Cytotoxicity against human MCF7 cells by MTT assay. Format: functional, cell-based.
Test [14] concerns the target Dual specificity tyrosine-phosphorylation-regulated kinase 1A (Homo sapiens, UniProt Q13627).
Description: Inhibition of DYRK1A (unknown origin)
The target in the next test is Casein kinase I. The test can be described thus: Inhibition of CK1 (unknown origin). Type of test: protein assay, Homo sapiens.
The target of another test is CDK9/Cyclin T (Homo sapiens, UniProt P50750). The test can be described thus: Inhibition of CDK9/Cyclin T (unknown origin). Format: protein-complex assay.
The subject of a further test is 786-0. The test can be described thus: Antitumor activity against human 786-0 cells. Type of test: functional.
Test [15] is described as follows: Selectivity index, ratio of IC50 for CDK1/Cycline B (unknown origin) to IC50 for GSK3beta (unknown origin).
Another test deals with Integrin alpha-V/beta-3 (Homo sapiens, UniProt P05106+P06756). Description: Antagonist activity against human integrin alphaVbeta3 expressed in CHO-K1 cells measured after 4 hrs by Cell adhesion assay. Type of test: cell-based.
Integrin alpha-V/beta-3, sequence (P05106 27-788 limits assumed): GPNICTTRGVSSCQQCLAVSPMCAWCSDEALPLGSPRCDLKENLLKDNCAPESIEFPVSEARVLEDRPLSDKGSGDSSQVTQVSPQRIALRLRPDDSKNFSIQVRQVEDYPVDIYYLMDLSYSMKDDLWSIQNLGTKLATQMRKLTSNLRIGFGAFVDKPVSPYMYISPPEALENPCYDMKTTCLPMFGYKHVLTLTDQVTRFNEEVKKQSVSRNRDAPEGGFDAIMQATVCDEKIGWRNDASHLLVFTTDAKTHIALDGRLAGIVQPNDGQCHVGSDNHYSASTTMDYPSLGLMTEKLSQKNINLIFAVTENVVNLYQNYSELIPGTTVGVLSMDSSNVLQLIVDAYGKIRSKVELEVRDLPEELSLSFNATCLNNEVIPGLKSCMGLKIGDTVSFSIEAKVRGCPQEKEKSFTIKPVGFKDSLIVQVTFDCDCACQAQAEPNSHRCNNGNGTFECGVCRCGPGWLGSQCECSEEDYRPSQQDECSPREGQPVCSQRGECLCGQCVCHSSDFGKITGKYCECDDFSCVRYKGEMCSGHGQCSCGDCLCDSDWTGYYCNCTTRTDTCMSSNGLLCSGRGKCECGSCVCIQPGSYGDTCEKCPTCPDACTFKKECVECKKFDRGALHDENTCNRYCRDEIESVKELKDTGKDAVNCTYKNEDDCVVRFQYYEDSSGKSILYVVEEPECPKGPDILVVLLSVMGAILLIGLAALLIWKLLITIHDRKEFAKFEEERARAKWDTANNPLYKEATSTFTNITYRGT
Integrin alpha-V/beta-3, sequence (P06756 31-889 limits assumed): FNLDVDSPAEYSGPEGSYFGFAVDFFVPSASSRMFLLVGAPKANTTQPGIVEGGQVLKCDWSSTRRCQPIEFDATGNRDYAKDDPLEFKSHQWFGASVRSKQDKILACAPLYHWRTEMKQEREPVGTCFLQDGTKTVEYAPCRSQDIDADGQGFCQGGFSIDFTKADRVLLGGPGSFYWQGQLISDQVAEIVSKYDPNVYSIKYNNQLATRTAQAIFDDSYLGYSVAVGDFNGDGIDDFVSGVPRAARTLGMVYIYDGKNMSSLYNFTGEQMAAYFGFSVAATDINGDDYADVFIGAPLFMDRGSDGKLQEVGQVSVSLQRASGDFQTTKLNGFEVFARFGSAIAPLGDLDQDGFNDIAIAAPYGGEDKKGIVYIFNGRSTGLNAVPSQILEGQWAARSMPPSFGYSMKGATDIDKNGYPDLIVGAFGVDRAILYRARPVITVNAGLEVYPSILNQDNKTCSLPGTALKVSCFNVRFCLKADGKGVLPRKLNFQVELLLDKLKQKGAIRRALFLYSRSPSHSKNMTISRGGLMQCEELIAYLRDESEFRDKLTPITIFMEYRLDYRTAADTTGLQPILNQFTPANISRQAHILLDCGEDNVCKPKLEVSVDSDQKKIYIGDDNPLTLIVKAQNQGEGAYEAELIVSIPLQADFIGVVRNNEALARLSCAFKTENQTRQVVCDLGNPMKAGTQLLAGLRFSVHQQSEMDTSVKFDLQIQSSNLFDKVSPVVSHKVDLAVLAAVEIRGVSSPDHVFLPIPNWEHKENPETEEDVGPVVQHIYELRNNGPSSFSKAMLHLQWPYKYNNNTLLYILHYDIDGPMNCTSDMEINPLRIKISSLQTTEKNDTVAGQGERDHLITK
Integrin alpha-V/beta-3, sequence (P06756 891-1048 limits assumed): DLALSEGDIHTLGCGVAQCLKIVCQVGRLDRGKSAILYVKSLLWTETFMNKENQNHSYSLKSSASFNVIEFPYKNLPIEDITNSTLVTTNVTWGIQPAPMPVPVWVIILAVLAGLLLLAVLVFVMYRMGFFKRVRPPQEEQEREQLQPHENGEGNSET

Cyclin-dependent kinase 5/CDK5 activator 1, sequence (Q00535 whole entry): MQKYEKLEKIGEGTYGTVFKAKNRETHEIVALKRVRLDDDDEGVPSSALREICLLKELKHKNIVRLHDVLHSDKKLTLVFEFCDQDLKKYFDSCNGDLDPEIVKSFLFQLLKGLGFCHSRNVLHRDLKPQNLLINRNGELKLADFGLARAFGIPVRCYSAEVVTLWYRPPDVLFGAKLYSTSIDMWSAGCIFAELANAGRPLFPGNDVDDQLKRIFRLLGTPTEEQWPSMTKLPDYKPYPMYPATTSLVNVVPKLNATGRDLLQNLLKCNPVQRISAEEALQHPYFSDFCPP
Cyclin-dependent kinase 5/CDK5 activator 1, sequence (Q15078 whole entry, further chain): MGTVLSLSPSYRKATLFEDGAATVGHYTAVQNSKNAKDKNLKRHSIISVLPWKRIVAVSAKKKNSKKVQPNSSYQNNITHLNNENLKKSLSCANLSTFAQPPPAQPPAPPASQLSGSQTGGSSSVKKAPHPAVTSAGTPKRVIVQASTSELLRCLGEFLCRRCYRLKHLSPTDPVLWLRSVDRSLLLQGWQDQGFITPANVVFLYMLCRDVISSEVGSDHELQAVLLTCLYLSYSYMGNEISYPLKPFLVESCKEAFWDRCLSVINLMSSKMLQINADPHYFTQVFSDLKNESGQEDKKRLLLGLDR
Glycogen synthase kinase-3 beta, sequence (P18266 whole entry): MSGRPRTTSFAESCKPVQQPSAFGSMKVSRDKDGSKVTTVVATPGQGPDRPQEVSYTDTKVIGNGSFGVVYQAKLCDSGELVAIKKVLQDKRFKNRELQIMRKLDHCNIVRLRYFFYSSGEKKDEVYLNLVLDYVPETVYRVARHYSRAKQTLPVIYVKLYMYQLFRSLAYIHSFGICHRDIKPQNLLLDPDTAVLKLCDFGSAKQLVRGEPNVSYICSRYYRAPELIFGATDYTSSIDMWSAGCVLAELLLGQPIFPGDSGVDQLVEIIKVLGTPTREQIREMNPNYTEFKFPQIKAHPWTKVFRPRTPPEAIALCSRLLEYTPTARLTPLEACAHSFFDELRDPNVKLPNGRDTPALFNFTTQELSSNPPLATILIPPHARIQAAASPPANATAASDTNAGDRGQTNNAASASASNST
Mitogen-activated protein kinase kinase kinase 7 (Homo sapiens), sequence (O43318 whole entry): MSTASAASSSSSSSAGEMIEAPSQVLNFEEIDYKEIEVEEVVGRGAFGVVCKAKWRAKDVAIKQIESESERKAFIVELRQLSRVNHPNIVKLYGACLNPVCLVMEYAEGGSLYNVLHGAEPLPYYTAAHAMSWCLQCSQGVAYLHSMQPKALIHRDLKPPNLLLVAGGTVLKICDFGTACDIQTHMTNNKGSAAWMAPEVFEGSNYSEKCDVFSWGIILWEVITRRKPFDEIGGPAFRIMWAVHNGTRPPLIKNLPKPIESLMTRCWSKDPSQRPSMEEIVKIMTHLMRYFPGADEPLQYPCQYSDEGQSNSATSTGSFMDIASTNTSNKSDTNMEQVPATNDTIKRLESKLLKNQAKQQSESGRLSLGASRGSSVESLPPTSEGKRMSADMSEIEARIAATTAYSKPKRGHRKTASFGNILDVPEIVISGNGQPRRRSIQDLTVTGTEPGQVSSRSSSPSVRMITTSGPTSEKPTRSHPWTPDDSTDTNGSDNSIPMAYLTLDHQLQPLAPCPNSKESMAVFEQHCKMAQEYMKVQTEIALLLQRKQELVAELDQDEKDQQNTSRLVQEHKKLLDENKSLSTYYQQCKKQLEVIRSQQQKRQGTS
Cyclin-dependent kinase 4/cyclin D1, sequence (P11802 whole entry): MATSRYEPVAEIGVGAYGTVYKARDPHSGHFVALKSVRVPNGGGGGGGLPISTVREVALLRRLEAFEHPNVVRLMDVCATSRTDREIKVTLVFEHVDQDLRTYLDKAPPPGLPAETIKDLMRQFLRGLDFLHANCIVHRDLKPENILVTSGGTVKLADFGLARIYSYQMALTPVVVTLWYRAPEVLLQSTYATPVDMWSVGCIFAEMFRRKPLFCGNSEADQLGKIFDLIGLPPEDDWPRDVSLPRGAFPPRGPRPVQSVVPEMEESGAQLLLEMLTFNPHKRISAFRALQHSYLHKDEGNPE
Cyclin-dependent kinase 4/cyclin D1, sequence (P24385 whole entry, further chain): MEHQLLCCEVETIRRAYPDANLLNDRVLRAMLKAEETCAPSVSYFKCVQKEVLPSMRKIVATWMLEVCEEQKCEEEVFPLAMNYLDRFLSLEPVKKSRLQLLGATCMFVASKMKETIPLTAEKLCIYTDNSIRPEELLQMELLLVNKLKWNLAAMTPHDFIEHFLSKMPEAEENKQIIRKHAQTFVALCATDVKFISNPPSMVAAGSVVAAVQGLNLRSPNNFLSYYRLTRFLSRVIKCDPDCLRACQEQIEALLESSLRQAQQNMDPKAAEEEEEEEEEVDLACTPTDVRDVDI
RAF proto-oncogene serine/threonine-protein kinase, sequence (P04049 whole entry): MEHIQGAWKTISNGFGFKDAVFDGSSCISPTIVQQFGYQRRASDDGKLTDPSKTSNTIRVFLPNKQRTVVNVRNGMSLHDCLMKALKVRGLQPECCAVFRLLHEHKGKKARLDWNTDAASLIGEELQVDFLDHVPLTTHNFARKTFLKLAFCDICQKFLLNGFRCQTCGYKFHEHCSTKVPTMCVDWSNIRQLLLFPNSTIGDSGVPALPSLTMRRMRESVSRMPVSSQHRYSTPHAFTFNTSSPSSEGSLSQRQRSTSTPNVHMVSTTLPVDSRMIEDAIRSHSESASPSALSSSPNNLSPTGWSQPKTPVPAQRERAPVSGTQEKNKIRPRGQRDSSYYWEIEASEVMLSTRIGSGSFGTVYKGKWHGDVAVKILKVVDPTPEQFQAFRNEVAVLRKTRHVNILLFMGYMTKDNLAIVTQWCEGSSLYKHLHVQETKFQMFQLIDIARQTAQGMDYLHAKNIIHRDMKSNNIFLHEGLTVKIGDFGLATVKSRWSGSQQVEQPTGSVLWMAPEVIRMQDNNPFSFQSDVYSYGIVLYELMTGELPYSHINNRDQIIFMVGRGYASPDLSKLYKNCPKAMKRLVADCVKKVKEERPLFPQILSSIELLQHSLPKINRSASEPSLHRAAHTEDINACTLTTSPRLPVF

Turning to `COc1ccc(-c2cc3c([nH]2)C(=O)NCC/C3=C2/NC(N)=NC2=O)cc1OC`, in the test listed under Homo sapiens, the Ratio IC50 came out at 111.

Consider `CCOC(=O)C[C@H]1C=C(c2ccc(Cl)cc2)c2ccccc2-n2c(C)nnc21`, for which the IC50 is 0.12 µM in the test on MOLM-13 and 0.08 µM in the test on LAPC4.

In the case of `O=C1Cc2c([nH]c3ccc(Br)cc23)-c2ccccc2N1` [KENPAULLONE], the IC50 in test [1] was 38 µM; in test [2], over 1000 µM; in test [3], over 100 µM; in test [4] it was over 100 µM; in test [5], over 1000 µM.

For `O=C1Nc2ccccc2/C1=C1/Nc2ccccc2/C1=N\O`, the IC50 in [6] amounted to 0.022 µM.

Take `NC1=NC(=O)/C(=C2\CCNC(=O)c3[nH]c4ccc(Cl)cc4c32)N1`: the IC50 in [7] amounted to 0.191 µM; in test [8], 2.3 µM.

Take `NCCCCOc1ccc2c(c1)-c1[nH]c3ccc(Br)cc3c1CC(=O)N2`: in [6], the IC50 was 0.04 µM.

With `N#Cc1ccc2[nH]c3c(c2c1)CC(=O)Nc1cccnc1-3` [CAZPAULLONE], the IC50 in test [9] and in test [8] was 0.5 µM in each case.

Consider `NC1=NC(=O)/C(=C2\CCNC(=O)c3[nH]c4ccccc4c32)N1`, for which the IC50 in the test on THP-1 [10] worked out at 3.5 µM; in the test with THP-1 [11], 8.2 µM; in [7] it was 0.177 µM; in [8] it was 0.8 µM. In addition, the Ratio IC50 in the test filed under Homo sapiens was found to be 29.

Consider `CC(=O)NC1=NC(=O)/C(=C2\CCNC(=O)c3[nH]c(Br)c(Br)c32)N1`, for which the IC50 in test [7] was determined as 0.533 µM; in test [8], 1.5 µM.

On to `Nc1ncc(/C=C/CNC(=O)c2cc(Br)c(Br)[nH]2)[nH]1` [OROIDIN], for which the inhibition at 50 µM in test [12] worked out at 50%.

Take `CCOC(=O)c1[nH]cc2c1-c1[nH]c3ccccc3c1C(=O)NC2`: the inhibition in [13] was 78%.

Regarding `O=c1[nH]c2ccccc2c2c1[nH]c1ccccc12`, the IC50 in the test with KB 3-1 was 6.5 µM.

As for `NC1=NC(=O)/C(=C2\CCNC(=O)c3[nH]c(Cl)c(Cl)c32)N1`, the concentration for half-maximal inhibition (IC50) is 0.062 µM in test [7] and 0.22 µM in test [8].

With `O=C1Cc2c([nH]c3ccc(Br)cc23)-c2sccc2N1`, in test [7], the IC50 was determined as 0.12 µM.

In the case of `NC1=NC(=O)/C(=C2\CCNC(=O)c3[nH]c4ccc(Br)cc4c32)N1`, the values for the IC50 in [7] and in [8] were 0.213 µM and 1 µM, respectively.

Consider `O=C1NCc2ccccc2-c2c1[nH]c1ccccc21`, for which the IC50 in the test on MDA-MB-231 and in the test with MCF7 was 0.6 µM each time.

With `O=C1Cc2c([nH]c3cc[n+](Cc4ccccc4)cc23)-c2ccccc2N1.[Br-]`, the IC50 in test [14] is over 10 µM; on Casein kinase I it was over 10 µM; at CDK9/Cyclin T it was 0.24 µM; in [9], 6.2 µM; in test [7], 7.3 µM.

Regarding `O=C1Cc2c([nH]c3ccncc23)-c2ccccc2N1`, the IC50 at Casein kinase I was over 10 µM; in test [8], 2.1 µM.

As for `Cc1nnc(C[C@H]2C=C(c3ccc(Cl)cc3)c3ccccc3-n3c(C)nnc32)o1`, the IC50 with MOLM-13 amounted to 0.12 µM; in the test with LAPC4 it was 0.04 µM.

`O=C1Cc2c(-c3ccccc3)cc(-c3ccc(Cl)cc3)nc2-c2ccccc2N1` displayed a GI50 with 786-0 of 1.7 µM.

`O=C1Cc2c([nH]c3ccc(Br)cc23)-c2cccnc2N1` registered an IC50 in test [7] of 6 µM. Besides, the Selectivity Index in [15] turned out to be 1.4.

For `CNC1=NC(=O)/C(=C2\CCNC(=O)c3[nH]c(-c4ccccc4)cc32)N1`, the Ratio IC50 in the test filed under Homo sapiens was determined as 38.

For the molecule `Cc1nnc2n1-c1ccccc1C(c1ccc(Cl)cc1)=C[C@@H]2CC(=O)Nc1ccc2c(c1)NC(=O)C2`, the IC50 in the test with MOLM-13 amounted to 0.17 µM; with LAPC4, 0.08 µM.

In the case of `O=C(O)CC1CCC(=O)N(CC(=O)NCc2ccc(Nc3nc4ccccc4[nH]3)cc2)c2ccccc21` (configuration not stated), the IC50 on Integrin alpha-V/beta-3 came to 0.0005 µM.

The IC50 is the concentration that inhibits the measured activity by half. As a reminder, the inhibition is the relative decrease from the control value, in per cent. Broadly, the GI50 is the concentration giving 50% growth inhibition. Low values mean more potent growth inhibition, high ones less potent growth inhibition.
